pIC50: −log10 of the molar value. Like-named read-outs stand apart in the source and are kept apart here.
Columns and labels:
Type in all cases: cell-based
SALL4 [1] = target: T1, SALL4 (Homo sapiens, UniProt Q96SW2+Q9UJQ4); assay: SALL4 degradation assay, Kelly cell line (Western blot densitometry); conditions: Kelly cells, 100 nM, 24 h, average from n ≥ 2 experiments
T1 construct: SALL4 degradation in the Kelly cell line was investigated; endogenous in cells; host or cells: Kelly
Description: (§1) Cells were seeded on 6- or 12-well plates, and the compounds to be tested were added at the desired concentration range. […] After 24 h incubation (37° C., 5% CO2), cells were harvested, washed and cell lysates were prepared using RIPA lysis buffer. The amount of protein was determined via BCA assay, and the appropriate quantity was then loaded on the precast gel for the protein separation. After primary and secondary Ab staining, the membranes were washed and signals developed. The densitometry analysis was implemented to obtain the numeric values used later in the protein level evaluation process.

GSPT1 = target: T2, GSPT1 (Homo sapiens, UniProt P15170+Q96SW2); assay: GSPT1 degradation assay, Hep3B cell line; conditions: HEP3B cells, 24 h, read-out: % of GSPT1 protein reduction
T2 construct: GSPT1 degradation in the Hep3B cell line was investigated; endogenous in cells; host or cells: Hep3B
Description: (§2) Hep3B cells were maintained in EMEM medium, supplemented with penicillin/streptomycin and 10% Fetal Bovine Serum (FBS). Cells were seeded on 6- or 12-well plates, and the compounds to be tested were added at the desired concentration range. Final DMSO concentration was 0.25%. After 24 h incubation (37° C., 5% CO2), cells were harvested, washed and cell lysates were prepared using RIPA lysis buffer. The amount of protein was determined via BCA assay, and the appropriate quantity was then loaded on the precast gel for the protein separation. After primary and secondary Ab staining, the membranes were washed and signals developed. The densitometry analysis was implemented to obtain the numeric values used later in the protein level evaluation process. Densitometry values were normalized to the loading control and calculated as [%] of the DMSO control.

Ikaros (IKZF1) = target: T3, Ikaros (IKZF1) (Homo sapiens, UniProt Q13422+Q96SW2); assay: Ikaros degradation assay, H929 cell line; conditions: H929 cells, 24 h
T3 construct: Ikaros degradation in the H929 cell line was investigated; endogenous in cells; host or cells: H929
Description: as §1

KG-1 cells = assay: Cell viability CTG assay, KG-1; conditions: Homo sapiens; KG-1, 72 h, 0.001-50 μM; read-out: KG-1 Geomean absolute IC50 by molecule, 72 H
Description: (§3) The effect of various compounds of the invention and various reference compounds on cell viability in various cell lines was investigated, using the Cell Viability—CTG Assay Protocol below. Hep3B, Kelly, H929, KG-1 and SNU-398 cells were maintained in respective cell medium (see Table 8, below). The cells were seeded on the 96-well or 384-white plates, and the compounds to be tested were added at the desired concentration range. Compounds are diluted in DMSO, and the DMSO concentration is kept constant at 0.25% v/v across the assay plate. After 72 h incubation (37° C., 5% CO2), CellTiter-Glo® Reagent (Promega/G7570) was added to the wells. Plates are shaken for 4 minutes and incubated for 8 minutes in the dark prior to reading luminescence (LU) by using the CLARIOstar Multimode Plate Reader. The signal is proportional to the amount of ATP, which is directly proportional to the number of cells present in the culture.
(§4) Luminescence (RLU) values were normalized to DMSO control. Dose response is assessed by non-linear regression and IC50 calculation with the average of technical duplicate of percentage inhibition. IC50 values are reported as absolute IC50 values, being the concentration of test compound at the intersection of the concentration-response curves with T/C=50%. For calculation of mean IC50 values the geometric mean is used.

Kelly cells [2] = assay: Cell viability CTG assay, Kelly; conditions: 72 h, 0.001-50 μM, read-out: Kelly Geomean absolute IC50 by molecule, 72 H
Description: as §3, §4

Hep3B cells [3] = assay: Cell viability CTG assay, Hep3B; conditions: Homo sapiens, 72 h, 0.001-50 μM, read-out: Hep3B Geomean absolute IC50 by molecule, 72 H
Description: as §3, §4

H929 cells = assay: Cell viability CTG assay, H929; design: key to Geomean absolute IC50 by molecule, 72 H: Inactive represents IC50 > 50 μM; C represents 50 μM ≥ IC50 > 5 μM; conditions: H929, 72 h, 0.001-50 μM; for pIC50: Homo sapiens, NCI-H929, read-out: Geomean absolute IC50 by molecule, 72 H
Description: as §3, §4

SNU-398 cells = assay: Cell viability CTG assay, SNU-398; conditions: Homo sapiens; SNU-398, 72 h, 0.001-50 μM, FIG. 6C
Description: as §3, §4

Aiolos (IKZF3) = target: T4, Aiolos (IKZF3) (Homo sapiens, UniProt Q96SW2+Q9UKT9); assay: Aiolos degradation assay, H929 cell line; conditions: H929 cells, 20 μM, 24 h
T4 construct: Aiolos degradation in the H929 cell line was investigated; endogenous in cells; host or cells: H929
Description: as §1

SALL4 [4] = target: T1, SALL4; assay: SALL4 degradation in the Kelly cell line, time course; conditions: Kelly cells, 0.1 μM, 3, 6, 12, 24, 48 and 72 h, FIG. 2
Description: as §2, with “Kelly” for “Hep3B”, “RPMI-1640” for “EMEM”, “After” for “After 24 h”, “CO2) for a specified period of time,” for “CO2),”, “process.” for “process. Densitometry values were normalized to the loading control and calculated as [%] of the DMSO control.”

Kelly cells [5] = assay: Cell survival clonogenic assay, Kelly; conditions: 0.1-10 μM, crystal violet staining after 9-10 days
Description: (§5) To determine the ability of a single cell to form a colony (defined as a cluster of at least 50 cells), Kelly and Hep3B cells were maintained in RPM11640 (Kelly) or EMEM (Hep3B) medium, supplemented with penicillin/streptomycin and 10% FBS. The cells were counted and seeded on the 6-well plates, at the density of 1×10^3 cells per well, the compounds to be tested were added at the desired concentration range, and the cells were cultured at 37° C./5% CO2. After colony formation (9-10 days), the cells were washed and treated with 6.0% glutaraldehyde and 0.5% crystal violet mix for 30 min., followed by rinsing with water and drying at room temperature (RT).

Hep3B cells [6] = assay: Cell survival clonogenic assay, Hep3B; conditions: 0.1-10 μM, crystal violet staining after 9-10 days
Description: as §5

[7] = NCI-H929, 10 uM, read-out: % of IKZF1 protein reduction

T1 sequence (Q9UJQ4 whole entry): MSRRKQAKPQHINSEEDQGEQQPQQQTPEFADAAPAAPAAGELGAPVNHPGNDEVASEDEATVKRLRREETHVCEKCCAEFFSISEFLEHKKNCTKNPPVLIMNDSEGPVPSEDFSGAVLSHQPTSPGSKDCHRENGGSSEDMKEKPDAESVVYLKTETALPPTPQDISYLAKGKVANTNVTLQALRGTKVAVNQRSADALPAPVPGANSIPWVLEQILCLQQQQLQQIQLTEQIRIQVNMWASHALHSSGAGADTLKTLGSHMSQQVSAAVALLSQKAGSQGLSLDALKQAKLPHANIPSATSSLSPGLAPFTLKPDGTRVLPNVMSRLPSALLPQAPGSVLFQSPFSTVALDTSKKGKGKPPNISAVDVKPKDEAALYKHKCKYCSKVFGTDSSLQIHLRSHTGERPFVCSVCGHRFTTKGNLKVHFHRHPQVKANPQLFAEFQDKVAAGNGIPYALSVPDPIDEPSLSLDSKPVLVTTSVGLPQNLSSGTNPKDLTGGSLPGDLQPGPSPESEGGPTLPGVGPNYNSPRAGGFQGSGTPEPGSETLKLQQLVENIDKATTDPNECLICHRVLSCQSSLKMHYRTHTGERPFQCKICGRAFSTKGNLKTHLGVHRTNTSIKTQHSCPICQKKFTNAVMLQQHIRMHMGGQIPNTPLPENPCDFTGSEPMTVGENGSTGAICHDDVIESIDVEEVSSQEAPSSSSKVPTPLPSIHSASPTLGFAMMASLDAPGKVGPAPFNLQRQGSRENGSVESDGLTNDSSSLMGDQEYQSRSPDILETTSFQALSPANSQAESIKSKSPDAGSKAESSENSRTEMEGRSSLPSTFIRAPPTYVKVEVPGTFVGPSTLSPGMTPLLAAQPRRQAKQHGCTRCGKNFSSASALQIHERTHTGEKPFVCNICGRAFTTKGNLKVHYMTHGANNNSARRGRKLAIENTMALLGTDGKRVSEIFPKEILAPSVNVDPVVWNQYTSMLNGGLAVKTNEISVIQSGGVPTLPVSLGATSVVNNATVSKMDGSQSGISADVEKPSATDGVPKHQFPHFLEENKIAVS
T1 sequence (Q96SW2 whole entry): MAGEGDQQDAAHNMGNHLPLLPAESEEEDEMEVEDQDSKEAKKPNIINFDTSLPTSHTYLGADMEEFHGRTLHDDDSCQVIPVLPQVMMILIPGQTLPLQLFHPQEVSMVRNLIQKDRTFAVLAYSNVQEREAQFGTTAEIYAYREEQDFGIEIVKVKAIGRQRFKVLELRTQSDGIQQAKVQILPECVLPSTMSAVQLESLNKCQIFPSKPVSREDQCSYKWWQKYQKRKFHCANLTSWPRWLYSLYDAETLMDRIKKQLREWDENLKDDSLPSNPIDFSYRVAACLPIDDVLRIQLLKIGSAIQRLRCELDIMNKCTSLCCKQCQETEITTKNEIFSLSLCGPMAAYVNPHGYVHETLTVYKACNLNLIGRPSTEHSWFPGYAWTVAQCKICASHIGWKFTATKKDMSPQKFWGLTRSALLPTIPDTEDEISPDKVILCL
T1 sequence (Q16531 whole entry partner): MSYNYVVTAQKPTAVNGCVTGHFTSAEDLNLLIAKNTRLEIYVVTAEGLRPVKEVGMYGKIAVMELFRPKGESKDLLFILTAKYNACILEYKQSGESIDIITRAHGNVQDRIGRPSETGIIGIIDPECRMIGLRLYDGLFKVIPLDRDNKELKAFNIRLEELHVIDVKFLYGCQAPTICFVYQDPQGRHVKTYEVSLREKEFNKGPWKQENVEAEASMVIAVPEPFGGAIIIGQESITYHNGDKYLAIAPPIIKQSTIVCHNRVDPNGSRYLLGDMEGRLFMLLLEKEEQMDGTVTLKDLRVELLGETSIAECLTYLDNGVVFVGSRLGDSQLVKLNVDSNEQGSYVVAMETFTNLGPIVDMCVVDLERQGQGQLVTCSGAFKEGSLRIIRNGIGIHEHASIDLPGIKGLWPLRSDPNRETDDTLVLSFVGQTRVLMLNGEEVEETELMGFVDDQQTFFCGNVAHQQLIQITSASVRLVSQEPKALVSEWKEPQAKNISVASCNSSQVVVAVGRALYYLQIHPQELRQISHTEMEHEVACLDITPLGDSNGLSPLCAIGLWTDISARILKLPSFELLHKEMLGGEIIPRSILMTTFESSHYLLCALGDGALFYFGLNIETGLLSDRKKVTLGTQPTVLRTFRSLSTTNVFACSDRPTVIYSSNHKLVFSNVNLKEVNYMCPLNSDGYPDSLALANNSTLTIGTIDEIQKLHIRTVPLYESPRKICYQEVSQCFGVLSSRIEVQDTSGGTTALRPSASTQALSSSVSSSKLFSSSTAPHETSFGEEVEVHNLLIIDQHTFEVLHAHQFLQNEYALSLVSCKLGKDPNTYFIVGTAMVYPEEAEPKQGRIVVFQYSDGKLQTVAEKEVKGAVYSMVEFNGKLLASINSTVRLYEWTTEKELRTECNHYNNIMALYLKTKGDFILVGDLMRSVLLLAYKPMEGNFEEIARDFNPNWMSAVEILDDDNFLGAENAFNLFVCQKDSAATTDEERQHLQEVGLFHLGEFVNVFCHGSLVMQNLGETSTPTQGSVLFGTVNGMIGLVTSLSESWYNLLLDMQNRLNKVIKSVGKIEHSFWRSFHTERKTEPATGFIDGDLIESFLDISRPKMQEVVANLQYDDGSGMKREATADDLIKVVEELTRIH
T3 sequence (Q13422 whole entry): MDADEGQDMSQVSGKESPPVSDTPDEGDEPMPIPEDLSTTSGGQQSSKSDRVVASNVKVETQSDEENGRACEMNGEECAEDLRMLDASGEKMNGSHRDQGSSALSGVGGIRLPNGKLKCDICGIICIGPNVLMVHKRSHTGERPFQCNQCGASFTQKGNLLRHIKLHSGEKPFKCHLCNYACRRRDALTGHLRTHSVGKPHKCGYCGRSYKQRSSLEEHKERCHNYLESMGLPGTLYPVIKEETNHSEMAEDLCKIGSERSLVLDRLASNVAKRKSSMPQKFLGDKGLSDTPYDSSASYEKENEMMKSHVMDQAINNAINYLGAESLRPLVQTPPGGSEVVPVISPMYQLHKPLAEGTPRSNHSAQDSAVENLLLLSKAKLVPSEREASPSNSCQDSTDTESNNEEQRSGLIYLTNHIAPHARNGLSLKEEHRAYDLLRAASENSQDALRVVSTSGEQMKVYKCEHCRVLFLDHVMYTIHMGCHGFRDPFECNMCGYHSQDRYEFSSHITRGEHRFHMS
T3 sequence (Q96SW2 whole entry): as the sequence (Q96SW2 whole entry) above
T3 sequence (Q16531 whole entry partner): as the sequence (Q16531 whole entry partner) above
T4 sequence (Q9UKT9 whole entry): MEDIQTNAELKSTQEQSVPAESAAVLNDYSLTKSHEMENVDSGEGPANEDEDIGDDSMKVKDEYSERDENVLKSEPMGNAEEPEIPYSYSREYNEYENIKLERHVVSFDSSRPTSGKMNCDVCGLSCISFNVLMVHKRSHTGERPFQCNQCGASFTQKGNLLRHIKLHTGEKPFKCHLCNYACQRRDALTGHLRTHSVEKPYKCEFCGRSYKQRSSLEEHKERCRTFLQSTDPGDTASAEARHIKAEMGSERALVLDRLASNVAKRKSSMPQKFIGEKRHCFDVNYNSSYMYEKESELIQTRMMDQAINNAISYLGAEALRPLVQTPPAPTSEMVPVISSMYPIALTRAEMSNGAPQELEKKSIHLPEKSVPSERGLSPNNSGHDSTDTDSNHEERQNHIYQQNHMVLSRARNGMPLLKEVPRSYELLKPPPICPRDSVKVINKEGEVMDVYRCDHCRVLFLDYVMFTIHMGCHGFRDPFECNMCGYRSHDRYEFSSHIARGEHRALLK
T4 sequence (Q96SW2 whole entry): as the sequence (Q96SW2 whole entry) above
T4 sequence (Q16531 whole entry partner): as the sequence (Q16531 whole entry partner) above
T2 sequence (P15170 whole entry): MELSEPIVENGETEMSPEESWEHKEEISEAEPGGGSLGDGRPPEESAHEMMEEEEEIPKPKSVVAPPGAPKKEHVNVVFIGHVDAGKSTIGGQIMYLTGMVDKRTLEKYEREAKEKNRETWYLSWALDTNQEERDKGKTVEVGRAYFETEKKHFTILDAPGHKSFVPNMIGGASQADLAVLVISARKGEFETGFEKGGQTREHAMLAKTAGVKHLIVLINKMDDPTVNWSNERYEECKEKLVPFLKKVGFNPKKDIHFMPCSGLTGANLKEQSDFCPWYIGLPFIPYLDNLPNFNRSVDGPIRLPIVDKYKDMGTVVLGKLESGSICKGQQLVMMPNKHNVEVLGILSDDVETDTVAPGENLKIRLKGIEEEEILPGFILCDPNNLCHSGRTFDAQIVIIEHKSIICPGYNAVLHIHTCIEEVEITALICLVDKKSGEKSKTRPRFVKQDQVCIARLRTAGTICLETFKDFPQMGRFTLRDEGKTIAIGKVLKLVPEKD
T2 sequence (Q96SW2 whole entry): as the sequence (Q96SW2 whole entry) above
T2 sequence (Q16531 whole entry partner): as the sequence (Q16531 whole entry partner) above

SMILES	% of SALL4 protein reduction (SALL4 [1]) [%]	inhibition at 10 µM (Ikaros (IKZF1); [7]) [%]	pIC50 (Hep3B cells [3])	Geomean absolute IC50 by molecule, 72 H (H929 cells)	inhibition at 1 µM (GSPT1) [%]	pIC50 (KG-1 cells)	pIC50 (Kelly cells [2])	% of IKZF3 protein reduction (Aiolos (IKZF3))	also measured
NCc1cc2c(cc1F)C(=O)N(C1CCC(=O)NC1=O)C2 (centres unmarked) [Compound 3, 3-[5-(aminomethyl)-6-fluoro-1-oxo-2,3-dihydro-1H-isoindol-2-yl]piperidine-2,6-dione]	–	0 to 24	≥ 7.00	Inactive	–	≥ 7.00	≥ 7.00	–	inhibition at 10 µM (GSPT1): 80 to 100%; pIC50 (SNU-398 cells): 7.09
CC(C)(C)OC(=O)N[C@@H](Cc1cnc[nH]1)C(=O)NCc1ccc2c(c1)CN([C@@H]1CCC(=O)NC1=O)C2=O [Compound 29, tert-butyl ((S)-1-(((2-((R)-2,6-dioxopiperidin-3-yl)-1-oxoisoindolin-5-yl)methyl)amino)-3-(1H-imidazol-4-yl)-1-oxopropan-2-yl)carbamate]	–	–	–	–	–	–	–	C (C represents 0-24% of IKZF1 protein reduction)	inhibition at 20 µM (Ikaros (IKZF1); NCI-H929, 20 uM, read-out: % of IKZF1 protein reduction): 0 to 24%
Nc1c(O)ccc2c1C(=O)N(C1CCC(=O)NC1=O)C2=O (centres unmarked) [Compound 44, 4-amino-2-(2,6-dioxopiperidin-3-yl)-5-hydroxyisoindoline-1,3-dione]	>80	0 to 24	–	–	50 to 79	–	–	–	SALL4 degradation time course (SALL4 [4]): more rapidly and effectively than lenalidomide
CCCCCC(=O)NCc1ccc2c(c1)CN(C1CCC(=O)NC1=O)C2=O (centres unmarked) [Compound 100, reference compound]	–	–	–	–	–	–	–	–	inhibition at 10 µM (Ikaros (IKZF1); NCI-H929, 10 uM, numeric values, read-out: % of IKZF1 protein reduction): 52%; % of IKZF3 protein reduction (Aiolos (IKZF3); numeric values): 52%
Nc1cccc2c1CN(C1CCC(=O)NC1=O)C2=O (centres unmarked) [Lenalidomide, lenalidomide, reference compound]	–	–	–	–	–	–	–	–	pIC50 (H929 cells; numeric values): 6.36; survival of the cells (colony formation) (Kelly cells [5]): no activity; survival of the cells (colony formation) (Hep3B cells [6]): no activity
Nc1cccc2c1C(=O)N(C1CCC(=O)NC1=O)C2=O (centres unmarked) [Pomalidomide, pomalidomide, reference compound]	–	–	–	–	–	–	–	–	% of IKZF1 protein reduction (Ikaros (IKZF1); 10 uM, numeric values): 86%; % of IKZF1 protein reduction (Ikaros (IKZF1); 20 uM, numeric values): 91%; % of IKZF3 protein reduction (Aiolos (IKZF3); numeric values): 87%; pIC50 (H929 cells; numeric values): 7.21

Continued, in another order:

% of SALL4 protein reduction (SALL4 [1]) [%]	inhibition at 10 µM (Ikaros (IKZF1); [7]) [%]	pIC50 (Hep3B cells [3])	Geomean absolute IC50 by molecule, 72 H (H929 cells)	inhibition at 1 µM (GSPT1) [%]	SMILES	pIC50 (KG-1 cells)	pIC50 (Kelly cells [2])	% of IKZF3 protein reduction (Aiolos (IKZF3))	also measured
>80	0 to 24	≥ 7.00	–	–	[2H]C([2H])(N)c1ccc2c(c1)CN(C1CCC(=O)NC1=O)C2=O (centres unmarked) [Compound 2, 3-(5-(aminomethyl-d2)-1-oxoisoindolin-2-yl)piperidine-2,6-dione]	6.00 to 7.00	6.00 to 7.00	–	inhibition at 10 µM (GSPT1): 80 to 100%; pIC50 (H929 cells): 4.30 to 5.30
>80	0 to 24	6.00 to 7.00	Inactive	80 to 100	N[C@@H](Cc1cnc[nH]1)C(=O)NCc1ccc2c(c1)CN([C@@H]1CCC(=O)NC1=O)C2=O [Compound 27, (S)-2-amino-N-((2-((R)-2,6-dioxopiperidin-3-yl)-1-oxoisoindolin-5-yl)methyl)-3-(1H-imidazol-4-yl)propanamide]	6.00 to 7.00	6.00 to 7.00	C (C represents 0-24% of IKZF1 protein reduction)	–
–	0 to 24	6.00 to 7.00	Inactive	80 to 100	N[C@@H](Cc1cnc[nH]1)C(=O)NCc1ccc2c(c1)CN([C@H]1CCC(=O)NC1=O)C2=O [Compound 28, (S)-2-amino-N-((2-((S)-2,6-dioxopiperidin-3-yl)-1-oxoisoindolin-5-yl)methyl)-3-(1H-imidazol-4-yl)propanamide]	6.00 to 7.00	6.00 to 7.00	C (C represents 0-24% of IKZF1 protein reduction)	–

From US20240294489A1 (Captor Therapeutics S.A., priority 2020, published 2024)
